The values that follow come from ChEMBL document CHEMBL5244202, “Structural evolution of toll-like receptor 7/8 agonists from imidazoquinolines to imidazoles” (RSC Med Chem, 2021).

Bounds are passed on as bounds.

In assay [1] the target is T1, Toll-like receptor 8 (Homo sapiens) (UniProt Q9NR97).
T1 sequence (whole entry): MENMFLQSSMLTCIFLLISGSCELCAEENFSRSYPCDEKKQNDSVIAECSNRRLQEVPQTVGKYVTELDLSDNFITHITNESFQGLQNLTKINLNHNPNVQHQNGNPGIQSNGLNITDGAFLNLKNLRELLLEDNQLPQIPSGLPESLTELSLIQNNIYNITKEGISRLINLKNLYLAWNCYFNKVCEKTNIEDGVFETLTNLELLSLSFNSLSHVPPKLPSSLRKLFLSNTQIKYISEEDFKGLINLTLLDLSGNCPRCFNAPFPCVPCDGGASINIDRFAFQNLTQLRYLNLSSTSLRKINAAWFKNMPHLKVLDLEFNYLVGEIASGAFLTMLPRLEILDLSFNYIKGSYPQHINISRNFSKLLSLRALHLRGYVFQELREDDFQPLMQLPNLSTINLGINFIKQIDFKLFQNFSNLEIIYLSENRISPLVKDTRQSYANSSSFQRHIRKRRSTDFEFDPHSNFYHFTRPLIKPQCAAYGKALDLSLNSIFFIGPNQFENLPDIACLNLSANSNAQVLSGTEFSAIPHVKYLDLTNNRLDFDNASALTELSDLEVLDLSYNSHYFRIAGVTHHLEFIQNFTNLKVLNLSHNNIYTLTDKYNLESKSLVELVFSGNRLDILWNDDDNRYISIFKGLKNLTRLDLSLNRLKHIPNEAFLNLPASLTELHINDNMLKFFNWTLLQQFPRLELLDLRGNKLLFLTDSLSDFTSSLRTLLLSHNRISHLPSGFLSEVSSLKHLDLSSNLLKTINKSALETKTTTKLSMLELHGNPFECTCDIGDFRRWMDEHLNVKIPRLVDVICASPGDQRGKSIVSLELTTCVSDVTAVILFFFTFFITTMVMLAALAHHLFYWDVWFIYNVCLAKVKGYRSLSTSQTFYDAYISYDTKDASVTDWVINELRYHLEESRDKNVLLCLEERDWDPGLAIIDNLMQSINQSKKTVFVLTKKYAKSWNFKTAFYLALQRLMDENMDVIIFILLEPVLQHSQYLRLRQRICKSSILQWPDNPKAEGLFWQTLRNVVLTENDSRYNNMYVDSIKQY
Kind of assay: (§1) Agonist activity at TLR8 (unknown origin).

The target in assay [2] is T2, Toll-like receptor 7 (Homo sapiens) (UniProt Q9NYK1).
T2 sequence (whole entry): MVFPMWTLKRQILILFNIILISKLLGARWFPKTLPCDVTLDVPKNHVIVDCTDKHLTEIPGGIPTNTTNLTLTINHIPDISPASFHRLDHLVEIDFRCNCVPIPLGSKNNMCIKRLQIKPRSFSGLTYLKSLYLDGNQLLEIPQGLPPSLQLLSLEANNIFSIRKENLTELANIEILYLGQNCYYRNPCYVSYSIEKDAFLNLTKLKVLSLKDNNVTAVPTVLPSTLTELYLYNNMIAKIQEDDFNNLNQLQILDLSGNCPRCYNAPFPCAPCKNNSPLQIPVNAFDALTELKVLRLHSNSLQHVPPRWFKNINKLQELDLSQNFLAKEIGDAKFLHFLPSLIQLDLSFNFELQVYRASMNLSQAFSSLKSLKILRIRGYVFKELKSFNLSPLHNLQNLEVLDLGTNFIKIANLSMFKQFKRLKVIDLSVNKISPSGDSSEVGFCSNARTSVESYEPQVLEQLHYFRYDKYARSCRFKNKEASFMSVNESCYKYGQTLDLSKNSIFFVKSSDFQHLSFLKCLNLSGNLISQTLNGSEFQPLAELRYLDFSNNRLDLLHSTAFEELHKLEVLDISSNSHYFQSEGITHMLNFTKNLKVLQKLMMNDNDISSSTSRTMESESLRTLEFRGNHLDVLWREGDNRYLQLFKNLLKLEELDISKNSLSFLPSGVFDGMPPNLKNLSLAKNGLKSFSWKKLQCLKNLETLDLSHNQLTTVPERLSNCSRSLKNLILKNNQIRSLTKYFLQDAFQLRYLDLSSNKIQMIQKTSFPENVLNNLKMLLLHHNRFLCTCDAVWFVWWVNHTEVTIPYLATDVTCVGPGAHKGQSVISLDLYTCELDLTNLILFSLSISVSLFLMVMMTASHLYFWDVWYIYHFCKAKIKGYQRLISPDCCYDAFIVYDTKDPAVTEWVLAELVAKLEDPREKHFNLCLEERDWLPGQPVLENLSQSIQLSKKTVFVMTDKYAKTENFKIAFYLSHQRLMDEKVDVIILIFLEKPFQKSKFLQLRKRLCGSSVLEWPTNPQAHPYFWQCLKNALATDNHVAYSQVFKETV
Kind of assay: (§2) Agonist activity at TLR7 (unknown origin). Particulars: filed as agonist.

Assay [3] addresses T3, Toll-like receptor 8 (Homo sapiens, UniProt Q9NR97).
T3 sequence (Q9NR97 whole entry): T1 sequence (whole entry)
The assay is described as follows: Agonist activity at human TLR8 in HEK-Blue hTLR8 cells incubated for 24 hrs by quanti-blue reagent based analysis. In kind it is cell-based.

Assay [4] has as its target T4, Toll-like receptor 7 (Homo sapiens, UniProt Q9NYK1).
T4 sequence (Q9NYK1 whole entry): T2 sequence (whole entry)
The assay is described as follows: Agonist activity at human TLR7 in HEK-Blue hTLR7 cells incubated for 24 hrs by quanti-blue reagent based analysis. In kind it is cell-based.

The target of assay [5] is T1, Toll-like receptor 8 (Homo sapiens). The assay is described as follows: Agonist activity at human TLR8 transfected in HEK293 cells incubated for 6 hrs by luciferase based analysis. In kind it is cell-based. Particulars: filed as agonist.
Assay [6] deals with T2, Toll-like receptor 7 (Homo sapiens). Kind of assay: Agonist activity at human TLR7 transfected in HEK293 cells incubated for 6 hrs by luciferase based analysis. The class given is cell-based. The conditions noted are these: filed as agonist.
Assay [7] deals with T3, Toll-like receptor 8. The assay is described as follows: Agonist activity at human TLR8 in HEK-Blue hTLR8 cells assessed as induction of SEAP production using nitrophenyl phosphate as substrate incubated for 20 hrs by microplate reader analysis. In kind it is cell-based.
Assay [8] addresses T4, Toll-like receptor 7. The assay is described as follows: Agonist activity at recombinant human TLR7 transfected in HEK293 cells assessed as induction of SEAP production incubated overnight by SEAP reporter gene based assay. In kind it is cell-based. In general terms: A reporter such as luciferase makes a cellular process visible.
For a further assay, the species on record is Homo sapiens. The assay is described as follows: Selectivity index, ratio of EC50 for agonist activity at TLR8 (unknown origin) to EC50 for agonist activity at TLR7 (unknown origin).
For assay [9], the target named is T3, Toll-like receptor 8. The description is as §1.
The target of assay [10] is T4, Toll-like receptor 7. The description is as §2.

Turning to `COc1cc2cc(c1)O/C=C\CCOc1nc(N)c3nc(O)n(c3n1)C2`, the MEC was over 25 µM in assay [1] and 0.18 µM in assay [2].
In general, EC50 refers to the concentration at which the effect is half-maximal. For the molecule `CCCCOc1nc(N)c2[nH]c(C#N)c(Cc3cnc(CN4CCCC4)s3)c2n1`, the EC50 at Toll-like receptor 8 [3] came out at 293 µM; at Toll-like receptor 7 [4] it was 0.454 µM.
Regarding `CCCC[C@@H](CO)Nc1nc(N)nc2ccsc12`, the figures for the MEC in assay [5] and in [6] were 0.03 µM and 0.5 µM, respectively.
Take `CCC[C@@H](CO)Nc1nc(N)nc(C)c1Cc1ccc(CN2CCCC2)cc1OC`: the EC50 at Toll-like receptor 8 [7] is 0.0631 µM; on Toll-like receptor 7 [8], under 0.00589 µM.
In the case of `CCC[C@@H](CO)Nc1nc(N)nc(C)c1Cc1ccc(CN2CCN(C)CC2)cc1OC`, the values for the EC50 on Toll-like receptor 8 [7] and on Toll-like receptor 7 [8] were 0.1 µM and under 0.00631 µM, respectively.
The corresponding values for `CCC[C@@H](CCO)Nc1nc(N)nc(C)c1Cc1ccc(CN(C)CCO)cc1OC` are 2.51 µM and under 0.00501 µM.
For `CCOC(=O)C1=Cc2ccc(-c3cccc(C#N)c3)cc2N=C(N)C1`, the Ratio EC50 in the assay listed under Homo sapiens came out at 500. In addition, the 50% effective concentration (EC50) at Toll-like receptor 8 [9] is 15 µM; at Toll-like receptor 7 [10], 0.03 µM.
In the case of `COc1ccc2cc1O/C=C\CCOc1nc(N)c3nc(O)n(c3n1)C2`, the results for the MEC in assay [1] and in assay [2] were over 25 µM and 2 µM, respectively.
